Patent publication US20250057808A1, “COMPOSITION COMPRISING BETA LACTAM FOR TREATING ALCOHOL DEPENDENCE AND ALCOHOL ASSOCIATED DISEASES OR CONDITIONS” (Temple University of the Commonwealth System of Higher …, priority 2023, published 2025)
Entries after “also recorded” stand apart in the source; their conditions may differ.

Assays:
[1] = Ethanol intake, preference, water intake and body weight in male and female P rats (section B); assay type: in vivo, Male and female alcohol-preferring (P) rats; settings: for Body weight / Ethanol consumption: 100 mg/kg; for Ethanol consumption / Ethanol preference / Water consumption: vs ethanol-saline group; for Ethanol preference / Water consumption: 100 mg/kg i.p.; for Ethanol preference: Day 1 through Day 5
Description: Male and female alcohol-preferring (P) rats were acquired from Indiana University School of Medicine, Indianapolis, IN at the age of 80-85 days. All animals were single housed in a room with temperature at 22° C. and 50% humidity in a 12 h light/dark cycle. Rats had free access to food and water throughout the experimental procedures. All the experimental procedures were approved by the University of Toledo Institutional Animal Care and Use Committee (IACUC) under IACUC protocol #400160.
At the age of 90-100 days, 5-7 male and female rats were assigned randomly to three groups: (1) Water-drinking (Water-Saline) group with no access to ethanol and served as a control group; (2) Ethanol-Saline group, which was exposed to continuous free-choice access to ethanol (15% and 30%, v/v, concurrently), and water for five weeks, and saline i.p. injections were performed from Days 1-5 on Week 6; and (3) Ethanol-MC-100093 group, which had continuous free-choice access to ethanol (15% and 30%, v/v), and water for five weeks, and MC-100093 i.p. injections were performed from Days 1-5 on Week 6. Ethanol and water intake were measured as g/kg/day. Rats were required to meet the criterion of an average ethanol consumption of 4 g/kg/day to be included in the study, for at least 2 weeks before saline vehicle or MC-100093 i.p. injections, as adopted in previous studies. Average ethanol and water consumptions throughout Week 5 served as a baseline. At Week 6 of the experiment, ethanol-MC-100093 group received MC-100093 at a dose of 100 mg/kg (i.p.) once daily for five days, and ethanol-saline and water-saline groups received saline vehicle as an i.p injection for five consecutive days. Water and ethanol were measured daily 24 hours after the first i.p. injections of saline or MC-100093 and 24 hours after the last i.p. injections of saline or MC-100093.
(§1) All statistical analyses were conducted using GraphPad Prism (10). Two-way (mixed) ANOVA followed by Bonferroni multiple comparison post-hoc test was performed to analyze daily ethanol intake, average daily water intake and body weight. One-way ANOVA followed by Newman-Keuls post hoc tests were used to analyze Western blot data. All statistical analyses data were reported as a p<0.05 of significance.
Ethanol preference was calculated as total ethanol consumption/total fluid consumption×100 from daily alcohol and water consumption.

xCT = assay: Immunoblot xCT in mPFC-IL, mPFC-PL, NAc-core, NAc-shell (section B); assay type: in vivo, Male and female alcohol-preferring (P) rats; settings: 100 mg/kg i.p. 5 days
Description: After 24 hours of receiving the last injection, rats were euthanized by CO2 inhalation followed by decapitation with a guillotine. Brains were harvested and immediately frozen on dry ice and stored at −80° C. Cryostat (Leica) was used to isolate the mPFC subregions (mPFC-IL and mPFC-PL), and subregions of the NAc (NAc-core and NAc-shell). Brains were micro-punctured using the stereotaxic coordinates following the Rat Brain Atlas. The isolated brain regions were stored at −80° C. for subsequent protein detection using Western Blot assay.
Immunoblot assays were performed to determine the expression of GLT-1, xCT and β-tubulin in mPFC-IL, mPFC-PL, NAc-core, and NAc-shell of all groups as described previously. Briefly, brain samples were homogenized in lysis buffer supplemented with protease inhibitor and total protein was quantified using protein assay (Bio-Rad, Hercules, CA, USA). Equal amount of the samples was loaded on polyacrylamide gel (10-20%).
Subsequently, proteins were transferred on a PVDF membrane and blocked with 5% milk in Tris-buffered saline Tween-20 (1×TBST) for 30 minutes at room temperature. Membranes were then incubated overnight at 4° C. with one of the following antibodies: rabbit anti-GLT-1 (1:1000, Abcam, AB41621), and/or rabbit anti-xCT (1:1000, Abcam, AB175186). Mouse anti-β-tubulin (1:1000; Cell Signaling D71G5) was used as a loading control antibody. On the following day, membranes were washed five times with 1×TBST followed by incubation with appropriate secondary antibody (1:4000) for 60 minutes at room temperature. Chemiluminescent reagents (Super Signal West Pico, Pierce Inc.) were used to detect proteins using a ChemiDoc imaging system (BioRad, USA).
GLT-1 and xCT expression were normalized against β-tubulin, a control loading protein. Imaging System and ImageJ software version 1.53a were used to quantify and analyze the expression of GLT-1 and xCT in the subregions of the mPFC and NAc. Data from water-control group were represented as 100% and all other values were expressed relative to this control to evaluate the changes in protein expression.
The ratios for treated animals in the ethanol/saline and ethanol/MC-100093 groups were normalized to the mean ratios for the control group (water/saline group). The control ratio was set at 100, and the results from each of the treated groups were expressed as a percentage relative to the water/saline group value of 100%. We normalized the ethanol/saline and ethanol/MC-100093 groups data to water/saline group to reduce any differences of contrast with Western blots for each set of groups (control/water/saline, ethanol/saline, and ethanol/MC-100093 groups).
as §1

[2] = female P rats, 100 mg/kg i.p. 5 days
[3] = male P rats, 100 mg/kg i.p. 5 days
[4] = female P rats, vs ethanol-saline and water-saline

Compound: C[C@@H](O)[C@H]1C(=O)N[C@@H]1[C@@H](C)C(=O)N1CCN(C)CC1 [MC-100093]
- Attenuation effect on ethanol consumption, male compared with female P rats ([1]; 100 mg/kg i.p. 5 days): higher attenuation effect on ethanol consumption in male P rats exceeding female P rats
- Body weight [1, 2]: no significant effect on body weights; also recorded: no effect on the body weight
- Ethanol consumption [1, 2]: reduced ethanol consumption in both male and female P rats from Day 1-5; also recorded: significant decrease in ethanol consumption from Day 1 through Day 5; also recorded: decreased ethanol consumption in male and female P rats
- Ethanol preference ([1]; female P rats): significant decrease in percent ethanol preference
- Water consumption ([1]; female P rats): significant increase in water consumption from Day 1 through Day 5
- Body weight [1, 3]: no significant effect on body weights; also recorded: no effect on the body weight
- Ethanol consumption [1, 3]: reduced ethanol consumption in both male and female P rats from Day 1-5; also recorded: significant decrease in ethanol consumption from Day 1 through Day 5; also recorded: decreased ethanol consumption in male and female P rats
- Ethanol preference ([1]; male P rats): significant decrease in percent ethanol preference
- Water consumption ([1]; male P rats): significant increase in water consumption from treatment Day 1 through Day 5
- xCT expression in the NAc-core (xCT; [4]): significant upregulation of xCT expression
- xCT expression in the NAc-shell (xCT; [4]): significant upregulation in the expression of xCT
- xCT expression in the mPFC-IL (xCT; [4]): significant upregulation in the expression of xCT
- xCT expression in the mPFC-PL (xCT; [4]): significant upregulation of the expression of xCT
- xCT expression in mPFC and NAc subregions (summary) (xCT; female and male P rats, vs ethanol-saline groups, 100 mg/kg): upregulated GLT-1 and xCT expression in mPFC and NAc subregions; also recorded: upregulated xCT expression in both the NAc and the mPFC subregions in male and female P rats; also recorded: increasing GLT-1 and xCT expression in the mPFC and NAc subregions
- xCT expression in the NAc-core (xCT; male P rats): significantly increased the expression of xCT
- xCT expression in the NAc-shell (xCT; male P rats): increased the expression of xCT
- xCT expression in the mPFC-IL (xCT; male P rats): significantly increased the expression of xCT
- xCT expression in the mPFC-PL (xCT; male P rats): significantly increased the expression of xCT
